The subject of data set [1] is rat hippocampal slices (indirect method for acetylcholinesterase (AChE) inhibition). The data set can be described thus: Electrically evoked 3H-acetylcholine release from rat hippocampal slices. Format: cell-based. An excerpt:
Electrically evoked ^3 H-acetylcholine release from rat hippocampal slices
Electrically evoked ^3 H-acetylcholine (^3 H-ACh) release from rat hippocampal slices is a functional in vitro model to investigate presynaptic muscarinic autoreceptor agonists and antagonists. This model can also be used as an indirect method to evaluate drugs which inhibit acetylcholinesterase (AChE). Inhibition of AChE activity leads to the accumulation of endogenous ACh which then interacts with presynaptic muscarinic autoreceptors and inhibits further release of ^3 H-ACh.
Rat hippocampal slices (Wistar strain, 180-200 g) are prepared by chopping into cross sections whole hippocampal slices at a distance of 0.3 mm with a McIlwain tissue chopper. Hippocampal slices obtained from 3 rats are incubated for 30 min. at 23° C. in 6 ml Krebs-Ringer containing 0.1 uCi ^3 H-choline and transferred into the superfusion chamber and superfused with Kreb's medium containing 10 μM hemicholinium-3 at a rate of 1.2 ml/min. at 30° C. Collection of 5 min. fractions of the superfusate begins after 60 min. of superfusion. Two periods of electrical stimulation (2 Hz rectangular pulses 2 msec, 10 mA, 2 min.) are applied after 70 min. (S1) and after 125 min. (S2) of superfusion. […] At the end of the experiments the slices are solubilized in conc. formic acid and tritium content is determined in the superfusate and the solubilized slices. Tritium outflow is expressed as the fractional rate of tritium outflow per min. Electrically evoked tritium outflow is calculated by subtraction of the extrapolated basal tritium outflow from the total tritium outflow during the two min. of electrical stimulation and the following 13 min. and is expressed as percent of the tritium content at the beginning of the sample collection. Drug effects on stimulation evoked tritium outflow are expressed as the ratios S2 /S1. All experiments are run in dublicates using a programmable 12 channel superfusion system. For the calculation a computer program is used.

Data set [2] has as its system dopamine metabolism in striatum. The data set can be described thus: Influence on dopamine metabolism. Type of data set: in vivo, rat. The conditions noted are these: following administration. The procedure: Influence on dopamine metabolism
Male OFA rats (150-200 g) were used both for acute and subchronic experiments. The animals are maintained under 12 hour periods of light and dark. The animals are sacrificed always between 11.00 and 13.00 h. The brains are excised immediately, dissected on ice according to the method of GLOWINSKI and IVERSEN, J. Neurochem. 13, 655 (1966), frozen on dry ice and the tissue samples stored at -80° C. until analysis.
Dopamine and its metabolites DOPAC (3,4-dihydroxyphenylacetic acid) and HVA (homovanillic acid) are determined in brain tissue extracts which are obtained by homogenisation of the stored brain tissue samples in 0.1N HCl containing 0.05 mM ascorbic acid and subsequent centrifugation. Striatal and cortical tissues are used.
The determination of the metabolites is performed using either the gas chromatography/mass fragmentography (GCMS) technique as described by KAROUM et al., J. Neurochem. 25, 653 (1975) and CATABENI et al., Science 178, 166 (1972) or the fluorometric method as described by […] and MAITRE, Analyt. Biochem. 51, 474 (1973). For the GCMS method, tissue extracts are prepared by adding known amounts of deuterated monoamines and their respective metabolites as internal standards.

Data set [3] relates to levels of ACh in different regions of rat brain. The data set is described as follows: Acetylcholine levels in different rat brain regions. Format: in vivo. As to conditions: p.o. As for the experimental part: Acetylcholine levels in different rat brain regions
The animals are killed by microwave irradiation focused on the head (6 kW operating power 2450 Mhz exposure 1.7 sec., Pueschner Mikrowellen-Energietechnik, Bremen). The brains are removed dissected according to Glowinski and Iversen (1966) and stored at -70° C. until analysis. The brain parts are homogenized in 0.1M perchloric acid containing internal deuterated standards of ACh-d4 and Ch(choline)-d4. After centrifugation, endogenous ACh and Ch together with their deuterated variants are extracted with dipicrylamine (2,2',4,4',6,6'-hexanitrodiphenylamine) in dichlormethane as ion pairs. The Ch moities are derivatized with propionyl chloride and the resulting mixture of ACh and propyl choline derivatives are demethylated with sodiumbenzenethiolate and analyzed by mass-fragmentography according to Jenden et al. Anal. Biochem., 55, 438-448, (1973).

A short description of data set [4]: In vitro skin diffusion test (penetration through the skin). Type of data set: in vitro ADME. As to conditions: rat skin. An excerpt: The penetration through the skin of the compounds for administration according to the invention may be observed in standard in vitro or in vivo tests.
One in vitro test is the well known diffusion test which may be effected according to the principles set out in GB 2098865 A and by T. J. Franz in J. Invest. Dermatol. (1975) 64, 194-195. Solutions containing the active agent in unlabelled or radioactively labelled form are applied to one side of isolated pieces of intact human skin or hairless rat skin about 2 cm^2 in area. The other side of the skin is in contact with physiological saline. The amount of active agent in the saline is measured in conventional manner, e.g. by HPLC or spectrophotometric techniques, or by determining the radioactivity.
In this test using rat skin the following penetration rates, for example, have been found: […]

Data set [5] addresses T1, AChE preparations of different rat brain regions (Rattus norvegicus, UniProt P37136).
T1 construct: Rat brain tissue is homogenized in cold phosphate buffer pH 7.3; from tissue; host or cells: rat brain (cortex, hippocampus, striatum), supernatant of Triton X-100 homogenate
The data set can be described thus: Acetylcholinesterase inhibition in different rat brain regions (in vitro, Ellman). Type of data set: biochemical. The conditions noted are these: table 1. The procedure: Acetylcholinesterase inhibition in different rat brain regions
AChE preparations of different rat brain regions (Cortex, hippocampus and striatum) are used in this test and the IC50 (inhibitory concentrations in μM) are determined. The enzyme preparations are preincubated with the inhibitor 15 minutes before the determination.
The AChE activity is measured according to the method described by Ellman (Arch. Biochem. Biophys. 82, 70, 1959). Rat brain tissue is homogenized in cold phosphate buffer pH 7.3 (0.25 mM) containing 0.1% of Triton X-100. After centrifugation aliquots of the clear supernatant is used as enzyme source. The enzyme is preincubated with different concentrations of the inhibitor. After different times, substrate (acetylthiocholinjodide 0.5 mM) is added and the remaining activity determined.
(In general: Ellman's reagent forms a yellow product with free thiols.)

Data set [6] deals with deoxyglucose (DOG) utilisation in the brain. The data set can be described thus: Muscarinic and nicotinic effects on brain glucose utilisation (deoxyglucose autoradiography). Format: in vivo, rat. As to conditions: 7.5 μmol/kg p.o. An excerpt: Muscarinic and nicotinic effects on brain glucose utilisation
Changes in the functional activity of the CNS are associated with altered deoxyglucose (DOG) utilisation in the brain which can be visualised simultaneously in several brain regions using the autoradiographic method of Sokoloff et al., J. Neurochem. 28, 897 (1977). The administration of cholinergic drugs either direct (muscarinic agonists) or indirect (accumulation of acetylcholine) induces in this model a characteristic "fingerprint" pattern by modifying the regional glucose metabolism.
Male Wistar rats (150-200 g) are used. Drugs are administered at various doses and by different routes (i.v., p.o., i.p.) to animals. [14C]-2-deoxyglucose (125 μC/kg) is injected 45 min. before the animals are sacrificed. The brains are immediately excised, frozen at -80° C. and subsequently cut in slices with a thickness of 20 μm. The optical densities of the radiographic images are measured according to a modification of Sokoloff et al.

T1 sequence (P37136 32-614): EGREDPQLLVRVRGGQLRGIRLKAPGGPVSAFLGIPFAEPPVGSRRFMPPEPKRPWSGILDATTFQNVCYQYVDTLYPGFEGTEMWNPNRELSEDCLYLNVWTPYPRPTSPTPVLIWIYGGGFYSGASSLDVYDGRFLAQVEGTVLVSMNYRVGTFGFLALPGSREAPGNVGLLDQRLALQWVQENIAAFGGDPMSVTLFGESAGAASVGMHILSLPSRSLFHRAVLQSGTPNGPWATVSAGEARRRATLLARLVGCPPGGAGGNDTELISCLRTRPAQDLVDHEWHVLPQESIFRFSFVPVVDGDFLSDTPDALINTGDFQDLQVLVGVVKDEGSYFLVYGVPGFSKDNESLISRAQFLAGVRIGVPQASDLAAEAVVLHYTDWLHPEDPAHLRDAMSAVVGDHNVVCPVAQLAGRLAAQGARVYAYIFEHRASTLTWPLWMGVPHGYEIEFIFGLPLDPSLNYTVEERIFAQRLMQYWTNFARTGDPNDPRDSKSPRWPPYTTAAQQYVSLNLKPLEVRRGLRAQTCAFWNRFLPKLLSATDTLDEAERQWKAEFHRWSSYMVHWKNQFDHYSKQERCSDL

With `CCN(C)C(=O)Oc1cccc(C(C)N(C)C)c1` (racemic) [Racemate C, (±)-N-ethyl-3-[(1-dimethylamino)ethyl]-N-methyl-phenyl-carbamate], the “antagonism of the inhibitory effect by atropine” value in data set [1] is on record as “can be antagonized by atropine”. Moreover, the inhibition (commonly the relative decrease from the control value, in per cent) at 100 µM in data set [1] (Rattus norvegicus, 3 h, 100 μM, read-out: inhibition of electrically evoked 3H-ACh release from hippocampal slices) is roughly 25%. Further, in data set [2], the “dopamine metabolism in striatum” value is “increased”. Moreover, the “influence on ACh levels in rat brain, comparison” value in data set [3] is on record as “significantly weaker than that induced by compound A”.

`CCN(C)C(=O)Oc1cccc([C@H](C)N(C)C)c1` [Compound of formula I in free base form, (S)-N-ethyl-3-[(1-dimethylamino)ethyl]-N-methyl-phenyl-carbamate] yielded a penetration rate in data set [4] of 28.0±8.2%.

Take `CCN(C)C(=O)Oc1cccc([C@@H](C)N(C)C)c1` [Compound B, reference compound]: the “activity in the evoked 3H-ACh release model” value in data set [1] is “inactive”. Further, the “AChE inhibition in vitro, comparison in words” value in data set [5] is listed as “significantly less active”. Also, the “dopamine metabolism in striatum” value in data set [2] was “increased”. Besides, the “changes in DOG utilisation in various rat brain regions” value in data set [6] was “significant changes in DOG utilisation”. In addition, in data set [3], the “influence on ACh levels in rat brain, comparison” value was “significantly weaker than that induced by racemate C”.

Source of the values: patent US5602176A, “Phenyl carbamate” (priority 1987, dated 1997).
